{"source": "patent US20220280607A1", "about": "“Treatment of Heart Defects and Conditions in Pediatric Patients” (University of Pittsburgh - Of the Commonwealth System of …, priority 2019, published 2022)", "key": {"[1]": {"tested_on": "cardiomyocytes of newborn mice", "test": "Mouse pharmacological treatment of newborn mice: binucleated cardiomyocytes, cardiomyocyte endowment, cell cycle activity, heart weight", "assay_type": "in vivo", "settings": "for increase of cardiomyocyte endowment: counting fixation-digested hearts, FIG. 12D", "experimental": "[…] An equal volume of phosphate buffered saline (PBS) was injected in the control groups.\nIsolation of intact cardiomyocytes for quantification: We used a previously validated fixation digestion method to isolate intact cardiomyocytes from fresh or frozen myocardium for quantification (Mollova, M., et al. “Cardiomyocyte proliferation in human heart growth” Proceedings of the National Academy of Sciences January 2013, 110 (4) 1446-1451; DOI: 10.1073/pnas.1214608110). The myocardium was cut into 1 cubic millimeter (mm^3) sized tissue blocks followed by incubation with 3.7% formaldehyde at room temperature for 1.8 hours. After being washed with PBS 3 times to remove the formaldehyde, the fixed tissue blocks were digested in enzyme solution (Collagenase B, 3.6 mg/ml; Collagenase D, 4.8 mg/ml) at 37 degrees Celsius (° C.), with 10 revolutions per minute (rpm) overhead rotation. The digested cells were collected every 24 hours from the supernatant, and the undigested tissue was re-suspended with fresh enzyme solution until all of the tissue pieces were digested. All of the digested cells from the same heart were then combined and allowed to settle to the bottom of the tube. The cell pellet was collected for further study.\nCounting of cardiomyocytes after fixation and digestion: All fractions from the digestion of a heart were combined in 2 milliliters (mL) PBS and cardiomyocytes were quantified using a hemocytometer.\nIntact cardiomyocytes in suspension. To assess M-phase, intact cardiomyocytes were isolated by fixation-digestion. The solution containing the stained cells was then transferred to 8-well chambered cover glass (400 μl/well). After the cells were settled down to the bottom of the chambers, the number of mono/bi/multinucleated cardiomyocytes were counted with a fluorescence microscope, and the percentage of mono/bi/multinucleated cardiomyocytes was calculated. To quantify the proportion of H3P-positive cardiomyocytes, the concentration of stained cardiomyocytes in suspension (Ccardiomyocytes) was first measured using a hemocytometer. The cell suspension (400 μl) was then transferred to a well of a chamber slide, and the total number of H3P-positive cardiomyocytes (HH3P+) inside the well was counted with a TiE epifluorescence microscope. The proportion of the H3P-positive cardiomyocytes (PH3P+) was calculated using the following formula: […]\nHeart sections: To determine S-phase, BrdU (40 μg/g body) was administered to P7 ICR mice and the hearts were resected at P8, fixed, and cryosectioned at 15 μm thickness. From each heart, four heart sections at a distance of 300 μm were selected and imaged by tile scanning with a Nikon A1R confocal microscope. The total number of BrdU-positive cardiomyocytes at the selected heart sections was counted. The total area of the selected heart sections was measured by Fiji software. The density of BrdU-positive cardiomyocytes (cells/mm^2) in the hearts was calculated using the following equation: […]\nIntact cardiomyocytes in suspension. Cardiomyocytes were isolated from fresh or frozen (human or mouse) ventricle myocardium using the fixation-digestion method, followed by immunostaining as described above. The cells were then imaged and quantified with a Nikon A1R microscope for mono/bi/multi-nucleation."}, "[2]": {"tested_on": "human fetal cardiomyocytes", "test": "Cytokinesis failure in cultured human fetal cardiomyocytes (β-adrenergic receptor signaling pathway studies)", "assay_type": "cell-based", "experimental": "Primary cardiomyocyte culture experiments: Neonatal (mouse or rat) cardiomyocytes or human fetal cardiomyocytes were plated in 4-well chamber slides pre-coated with fibronectin (10 μg/ml) at a density of 200,000 cells/well and cultured with DMEM/high glucose (for mouse and rat cardiomyocytes) or IMDM (for fetal human cardiomyocytes) containing 10% fetal bovine serum (FBS) and recombinant neuregulin 1 (rNRG1, 100 nanograms per milliliter (ng/ml)) overnight. All treatments and BrdU (30 micromolar (μM)) were added on the next day.\nβ-adrenergic receptor signaling pathway studies: Forskolin (10 μM), propranolol (10 μM), dobutamine (10 μM), or a combination of propranolol (10 μM) and dobutamine (10 μM) were added to the culture from day 1 to day 3. The cells were collected for examining gene expression or immunofluorescence microscopy at day 3.\nCardiomyocytes cultured on glass surfaces. […] The BrdU-positive nuclei, cell-cell boundaries (Pan-Cadherin antibody), and cardiomyocyte markers (α-actinin or troponin I antibody) were labeled by immunofluorescence. The stained cells were imaged under Nikon confocal microscope. The binucleated cardiomyocytes and all BrdU-positive cardiomyocytes were quantified using Fiji software."}}, "data": [{"smiles": "CC(C)NCC(O)COc1cccc2ccccc12", "note": "(stereo not shown) [propranolol, 1-naphthalen-1-yloxy-3-(propan-2-ylamino)propan-2-ol]", "values": [{"measurement": "fewer cardiomyocytes undergoing cytokinesis failure than PBS-treated pups", "setting": "[1]; at P8", "result": 13.6, "unit": "%"}, {"measurement": "additional cardiomyocytes predicted to be generated by enabling completion of cytokinesis", "setting": "[1]; at P8, back-of-the-envelope calculation from endowment of PBS-treated pups at P4", "result": "0.22×10^6 cardiomyocytes"}, {"measurement": "propranolol-induced increase of endowment between P4 and P8 (treated minus PBS)", "setting": "[1]; calculated from the counts", "result": "0.18×10^6 cardiomyocytes"}, {"measurement": "heart weight", "setting": "[1]; newborn mice, 2 i.p. injections per day, FIG. 16A, 16B", "result": "not changed"}, {"measurement": "increase of cardiomyocyte endowment", "setting": "[1]; newborn mice, at P4, 10 μg/g, 2 i.p. injections per day", "result": 22, "unit": "%"}, {"measurement": "increase of cardiomyocyte endowment", "setting": "[1]; newborn mice, at P8, 2 i.p. injections per day, 12H", "result": 30, "unit": "%"}, {"measurement": "cardiomyocyte cell cycle entry (quantified by BrdU uptake)", "setting": "[1]; newborn mice, at P8, FIG. 12E", "result": "without a change"}, {"measurement": "progression to M-phase (quantified by H3P-staining)", "setting": "[1]; newborn mice, at P8, FIG. 12F", "result": "without a change"}, {"measurement": "decrease of the proportion of binucleated cardiomyocytes", "setting": "[1]; newborn mice, treatment from P1 to P4, 10 μg/g, 2 i.p. injections per day, FIG. 12C", "result": 21, "unit": "%"}, {"measurement": "decrease of the proportion/formation of binucleated cardiomyocytes", "setting": "[1]; newborn mice, treatment from P1 to P8, 2 i.p. injections per day (propranolol 10 μg/g; alprenolol 10 μg/g, 40 μg/g), FIG. 12C, 12G", "result": 17, "unit": "%"}, {"measurement": "increase of cardiomyocyte endowment between P4 and P8 in treated pups", "setting": "[1]; propranolol-treated pups, from counts", "result": "0.35×10^6 cardiomyocytes"}, {"measurement": "Ect2-positive midbodies", "setting": "[2]; human fetal cardiomyocytes in cytokinesis, immunofluorescence microscopy, FIG. 14D", "result": "increased"}, {"measurement": "block of the dobutamine-stimulated increase in cardiomyocyte cytokinesis failure", "setting": "[2]; propranolol 10 μM + dobutamine 10 μM, human fetal cardiomyocytes, FIG. 14C", "result": "completely"}]}]}
